Entries after “also recorded” stand apart in the source; their conditions may differ.
Columns and labels:
Assay type in all cases: cell-based, human
KDR+ CXCR4+ mesoderm = assay: Specification of definitive hemogenic endothelium (HE) and hematopoietic potential from isolated day 3 WNTd KDR+ CXCR4+ mesoderm; conditions: for hematopoietic potential of the CD34+ HE specified: retinol (5 μM) added on day 3 to isolated KDR+ CXCR4+ mesoderm
Experimental: The hESC lines H1 and H9, and human iPSC1 were maintained on irradiated mouse embryonic fibroblasts in hESC media as described previously (Sturgeon, C. M., et al. Nat Biotechnol 32, 554-561, (2014); Thomson, J. A. et al. Science 282, 1145-1147 (1998); Dege, C. et al., J Vis Exp, (2017)). For differentiation, hPSC were cultured on Matrigel-coated plasticware (BD Biosciences, Bedford, MA) for 24 hours, followed by embryoid body (EB) generation, as described previously (Kennedy, M. et al. Cell Rep 2, 1722-1735, (2012); Dege, C. et al. J Vis Exp, (2017); Ditadi, A. et al. Methods 101, 65-72, (2016)). Briefly, hPSCs were dissociated with brief trypsin-EDTA (0.05%) treatment, followed by scraping. Embryoid body (EB) aggregates were resuspended in SFD media34 supplemented with L-glutamine (2 mM), ascorbic acid (1 mM), monothioglycerol (MTG, 4×10^−4 M; Sigma), transferrin (150 μg/mL), and BMP-4 (10 ng/mL). 24 hours later, bFGF (5 ng/mL) was added. On the second day of differentiation, ACTIVIN A, SB-431542 (6 μM), CHIR99021 (3 μM), and/or IWP2 (3 μM) were added. On the third day, EBs were changed to StemPro-34 media supplemented as above, with bFGF (5 ng/mL) and VEGF (15 ng/mL) and treated with either 10 μM of the pan-ALDH inhibitor DEAB (4-Diethylaminobenzaldehyde, Sigma #D86256; “RA-independent”) or 5 μM retinol (ROH, Sigma #R7632; “RA-dependent”). On day 6, IL-6 (10 ng/mL), IGF-1 (25 ng/mL), IL-11 (5 ng/mL), SCF (50 ng/mL), EPO (2 U/mL final) with DEAB or ROH were added. HE was FACS-isolated for terminal assays on day 8 (DEAB) or day 10 (ROH). All differentiation cultures were maintained at 37° C. All embryoid bodies and mesodermal aggregates were cultured in a 5% CO2/5% 02/90% N2 environment. All recombinant factors are human and were purchased from Biotechne. Analysis of hematopoietic colony potential via Methocult (Stem Cell Technologies) was performed as described previously (Ditadi, A. et al. Nat Cell Biol 17, 580-591, (2015); Kennedy, M. et al. Cell Rep 2, 1722-1735, (2012)).
For isolation of mesodermal populations, day 3 of differentiation WNTd KDR+ CD235a^negCXCR4+/neg and WNTi KDR+ CD235a+ cells were FACS-isolated and reaggregated at 250,000 cells/mL in day 3 media, as above. Cultures were plated in 250 μL volumes in a 24 well low-adherence culture plate, and grown overnight in a 37° C. incubator, with a 5% CO2/5% 02/90% N2 environment. As specified, RA was manipulated with either 5 μM ROH or ATRA (Sigma #R2625), or 10 μM DEAB. On day 4, an additional 1 mL of RA-supplemented day 3 media was added to reaggregates. On day 6 of differentiation, CD34+ and CD43+ cells from WNTi cultures were FACS-isolated for terminal assays. WNTd cultures were fed as normally, but without additional RA manipulation. CD34+ cells were sorted from all WNTd populations on day 8 of differentiation.
CD34+CD43^neg hemogenic endothelium was isolated by FACS and allowed to undergo the endothelial-to-hematopoietic transition as described previously (Ditadi, A. et al., Nat Cell Biol 17, 580-591, (2015); Ditadi, A. et al., Methods 101, 65-72, (2016)). Briefly, cells (CD34+CD43^neg or CD34+CD43^negCD73^negCXCR4neg cells) were aggregated overnight at a density of 2×10^5 cells/mL in StemPro-34 media supplemented with L-glutamine (2 mM), ascorbic acid (1 mM), monothioglycerol (MTG, 4×10^−4 M; Sigma-Aldrich), holo-transferrin (150 μg/mL), TPO (30 ng/mL), IL-3 (30 ng/mL), SCF (100 ng/mL), IL-6 (10 ng/mL), IL-11 (5 ng/mL), IGF-1 (25 ng/mL), EPO (2 U/mL), VEGF (5 ng/mL), bFGF (5 ng/mL), BMP4 (10 ng/mL), FLT3L (10 ng/mL), and SHH (20 ng/mL). Aggregates were spotted onto Matrigel-coated plasticware and were cultured for additional 3 or 9 days for WNTi and WNTd cultures, respectively. Cultures were maintained in a 37° C. incubator, in a 5% CO2/5% 02/90% N2 environment. Hemato-endothelial cultures were subsequently harvested by trypsinization, and assessed for hematopoietic potential by Methocult in a 37° C. incubator, in a 5% CO2/air environment. […]

[1] = test system: WNTd KDR+ CXCR4neg mesoderm; assay: Definitive hematopoietic development / HE specification from isolated day 3 WNTd KDR+ CXCR4neg mesoderm
Experimental: The hESC lines H1 and H9, and human iPSC1 were maintained on irradiated mouse embryonic fibroblasts in hESC media as described previously (Sturgeon, C. M., et al. Nat Biotechnol 32, 554-561, (2014); Thomson, J. A. et al. Science 282, 1145-1147 (1998); Dege, C. et al., J Vis Exp, (2017)). For differentiation, hPSC were cultured on Matrigel-coated plasticware (BD Biosciences, Bedford, MA) for 24 hours, followed by embryoid body (EB) generation, as described previously (Kennedy, M. et al. Cell Rep 2, 1722-1735, (2012); Dege, C. et al. J Vis Exp, (2017); Ditadi, A. et al. Methods 101, 65-72, (2016)). Briefly, hPSCs were dissociated with brief trypsin-EDTA (0.05%) treatment, followed by scraping. Embryoid body (EB) aggregates were resuspended in SFD media34 supplemented with L-glutamine (2 mM), ascorbic acid (1 mM), monothioglycerol (MTG, 4×10^−4 M; Sigma), transferrin (150 μg/mL), and BMP-4 (10 ng/mL). 24 hours later, bFGF (5 ng/mL) was added. On the second day of differentiation, ACTIVIN A, SB-431542 (6 μM), CHIR99021 (3 μM), and/or IWP2 (3 μM) were added. On the third day, EBs were changed to StemPro-34 media supplemented as above, with bFGF (5 ng/mL) and VEGF (15 ng/mL) and treated with either 10 μM of the pan-ALDH inhibitor DEAB (4-Diethylaminobenzaldehyde, Sigma #D86256; “RA-independent”) or 5 μM retinol (ROH, Sigma #R7632; “RA-dependent”). On day 6, IL-6 (10 ng/mL), IGF-1 (25 ng/mL), IL-11 (5 ng/mL), SCF (50 ng/mL), EPO (2 U/mL final) with DEAB or ROH were added. HE was FACS-isolated for terminal assays on day 8 (DEAB) or day 10 (ROH). All differentiation cultures were maintained at 37° C. […]
(§1) CD34+CD43^neg hemogenic endothelium was isolated by FACS and allowed to undergo the endothelial-to-hematopoietic transition as described previously (Ditadi, A. et al., Nat Cell Biol 17, 580-591, (2015); Ditadi, A. et al., Methods 101, 65-72, (2016)). […] Hemato-endothelial cultures were subsequently harvested by trypsinization, and assessed for hematopoietic potential by Methocult in a 37° C. incubator, in a 5% CO2/air environment. […]

WNTi CD235a+ mesoderm = assay: Extra-embryonic-like HE specification from isolated day 3 WNTi CD235a+ mesoderm
Experimental: (§2) The hESC lines H1 and H9, and human iPSC1 were maintained on irradiated mouse embryonic fibroblasts in hESC media as described previously (Sturgeon, C. M., et al. Nat Biotechnol 32, 554-561, (2014); Thomson, J. A. et al. Science 282, 1145-1147 (1998); Dege, C. et al., J Vis Exp, (2017)). For differentiation, hPSC were cultured on Matrigel-coated plasticware (BD Biosciences, Bedford, MA) for 24 hours, followed by embryoid body (EB) generation, as described previously (Kennedy, M. et al. Cell Rep 2, 1722-1735, (2012); Dege, C. et al. J Vis Exp, (2017); Ditadi, A. et al. Methods 101, 65-72, (2016)). Briefly, hPSCs were dissociated with brief trypsin-EDTA (0.05%) treatment, followed by scraping. Embryoid body (EB) aggregates were resuspended in SFD media34 supplemented with L-glutamine (2 mM), ascorbic acid (1 mM), monothioglycerol (MTG, 4×10^−4 M; Sigma), transferrin (150 μg/mL), and BMP-4 (10 ng/mL). 24 hours later, bFGF (5 ng/mL) was added. […]
as §1

[2] = test system: WNTd differentiation cultures; assay: Hematopoietic potential of HE from bulk WNTd differentiation cultures treated on day 3 (erythro-myeloid CFC, BFU-E globin); conditions: ROH on day 3 (RAd HE) compared with DEAB (RAi HE)
Experimental: as §2, with “scraping.” for “scraping. Embryoid body (EB) aggregates were resuspended in SFD media34 supplemented with L-glutamine (2 mM), ascorbic acid (1 mM), monothioglycerol (MTG, 4×10^−4 M; Sigma), transferrin (150 μg/mL), and BMP-4 (10 ng/mL). 24 hours later, bFGF (5 ng/mL) was added.”
as §1, with “environment. The experiments were performed in triplicate and the mean (±standard deviation) of the […] calculated for each data set is reported.” for “environment.”

HOXA genes = assay: HOXA gene expression in CXCR4+ mesoderm-derived CD34+ cells; conditions: after ROH treatment of CXCR4+ mesoderm on day 3
Experimental: Total RNA was prepared for whole-transcriptome sequencing using the Clontech SMARTer kit and was sequenced using an Illumina HiSeq 2500 with 1×50 single reads. Reads were aligned to hg19 using STAR and gene counts were obtained using Subread. TMM normalization and RPKM counts were calculated using EdgeR. Gene Set Enrichment Analysis (GSEA, version 4.0.1) and the Database for Annotation, Visualization, and Integrated discovery (DAVID, version 6.8) were used for differential expression analysis. Morpheus (software.broadinstitute.org/morpheus) was used to create heatmaps and perform hierarchical clustering (one minus the Pearson correlation with average linkage). Bulk RNA-seq comparison to scRNA-seq was performed using the SingleR package (version 1.0.1)(Aran, D. et al., Nat Immunol 20, 163-172, (2019)) implemented in R (version 3.5.1). qRT-PCR was performed as previously described (Sturgeon, C. M., et al., Nat Biotechnol 32, 554-561, (2014)). Briefly, total RNA was isolated with the RNAqueous RNA Isolation Kit (Ambion), followed by reverse transcription using random hexamers and Oligo (dT) with Superscript III Reverse Transcriptase (Invitrogen). Real-time quantitative PCR was performed on a StepOnePlus thermocycle (Applied Biosystems), using Power Green SYBR mix (Invitrogen). […] Gene expression was evaluated as DeltaCt relative to control (ACTB). […]

CC1=C(/C=C/C(C)=C/C=C/C(C)=C/C(=O)O)C(C)(C)CCC1 [ATRA, all-trans-retinoic acid]
specification of definitive HE (KDR+ CXCR4+ mesoderm; 1 nM ATRA on isolated KDR+ CXCR4+ mesoderm, day 3 of differentiation): robust specification of definitive HE
specification of HE (KDR+ CXCR4+ mesoderm; ATRA concentrations lower than 1 nM and higher than 10 nM, isolated KDR+ CXCR4+ mesoderm): failed to specify HE
effect on definitive hematopoietic development ([1]; 1-10 nM ATRA, WNTd KDR+ CXCR4neg mesoderm): no significant effect
ATRA concentration repressive to HE specification ([1]; WNTd KDR+ CXCR4neg mesoderm): > 100 nM
ATRA concentration repressive to extra-embryonic-like HE specification (WNTi CD235a+ mesoderm): > 1 nM

CCN(CC)c1ccc(C=O)cc1 [DEAB, 4-Diethylaminobenzaldehyde]
hematopoietic potential of the CD34+ population obtained (KDR+ CXCR4+ mesoderm; DEAB (ALDH inhibitor) added to KDR+ CXCR4+ mesoderm culture): completely lacked any hematopoietic potential
impact on definitive hematopoietic specification ([1]; DEAB added to KDR+ CXCR4neg mesoderm differentiation, any stage): gives rise to definitive hematopoietic progenitors; also recorded: no negative impact

CC1=C(/C=C/C(C)=C/C=C/C(C)=C/CO)C(C)(C)CCC1 [ROH, retinol]
stage at which ROH treatment results in specification of HE (KDR+ CXCR4+ mesoderm; ROH treatment on day 3, 4 or 5 of CXCR4+ mesoderm): on day 3 of differentiation, but not thereafter, resulted in the specification of HE
hematopoietic potential of the CD34+ HE specified (KDR+ CXCR4+ mesoderm): harbored definitive erythroid, myeloid, and lymphoid hematopoietic potential
hematopoietic potential of the CD34+ HE specified (KDR+ CXCR4+ mesoderm; listed as retinol): capable of erythro-myeloid-lymphoid multilineage hematopoiesis
erythro-myeloid CFC potential of the resulting HE [2]: significantly more erythro-myeloid CFC potential than RAi HE
fetal (HBG) globin expression of resultant BFU-E [2]: higher expression of fetal (HBG) globin
HOXA gene expression (HOXA genes): elevated HOXA gene expression

Source: patent publication US20250333701A1, “COMPOSITIONS AND METHODS FOR GENERATING HEMATOPOIETIC STEM CELLS (HSCS)” (Washington University, priority 2019, published 2025)
